One test has as its system FLU A (PR/8/34). The test is described as follows: Flu A Neuraminidase Antiviral Assay. It is filed as cell-based.
Conditions: not given
`CCN1C(=O)c2c(O)c(=O)ccn2N2C(c3ccccc3)C(CCC(F)F)CCC12` (single isomer, unassigned) [Compound 110B, 2-(3,3-difluoropropyl)-5-ethyl-7-hydroxy-1-phenyl-1,2,3,4,4a,5-hexahydrodipyrido[1,2-b:2′,1′-f][1,2,4]triazine-6,8-dione] came in with an EC50 of 0.0055 µM. Still for that read-out and setting: the same measure for `CCCC1CCC2N(C)C(=O)c3c(O)c(=O)ccn3N2C1c1ccccc1Cl` (centres unmarked) [Compound 65A, 1-(2-chlorophenyl)-7-hydroxy-5-methyl-2-propyl-1,2,3,4,4a,5-hexahydrodipyrido[1,2-b:2′,1′-f][1,2,4]triazine-6,8-dione]: 0.396 µM.

For `CN1C(=O)c2c(O)c(=O)ccn2N2C1CCCC2(C)c1c(F)cccc1F` (single isomer, unassigned) [Compound 23B, 1-(2,6-difluorophenyl)-7-hydroxy-1,5-dimethyl-1,2,3,4,4a,5-hexahydrodipyrido[1,2-b:2′,1′-f][1,2,4]triazine-6,8-dione], the EC50 came to 0.0026 µM.

Take `CN1C(=O)c2c(O)c(=O)ccn2N2C(c3ccc(F)cc3)CCCC12` (single isomer, unassigned) [Compound 2A, 1-(4-fluorophenyl)-7-hydroxy-5-methyl-1,2,3,4,4a,5-hexahydrodipyrido[1,2-b:2′,1′-f][1,2,4]triazine-6,8-dione]: the EC50 was 0.109 µM. Still for that read-out and setting: the same measure for `CN1C(=O)c2c(O)c(=O)ccn2N2C(c3ccccc3)C(CCC(F)F)CCC12` (single isomer, unassigned) [Compound 124A, 2-(3,3-difluoropropyl)-7-hydroxy-5-methyl-1-phenyl-1,2,3,4,4a,5-hexahydrodipyrido[1,2-b:2′,1′-f][1,2,4]triazine-6,8-dione]: 0.871 µM; for `CCN1C(=O)c2c(O)c(=O)ccn2N2C(c3ccccc3C)C(CCC(F)F)CCC12` (single isomer, unassigned) [Compound 102A, 2-(3,3-difluoropropyl)-5-ethyl-7-hydroxy-1-(o-tolyl)-1,2,3,4,4a,5-hexahydrodipyrido[1,2-b:2′,1′-f][1,2,4]triazine-6,8-dione]: 0.0029 µM; for `Cc1ccccc1C1C(CC(F)(F)F)CCC2(C)N(C)C(=O)c3c(O)c(=O)ccn3N12` (single isomer, unassigned) [Compound 87A, 7-hydroxy-4a,5-dimethyl-1-(o-tolyl)-2-(2,2,2-trifluoroethyl)-1,2,3,4,4a,5-hexahydrodipyrido[1,2-b:2′,1′-f][1,2,4]triazine-6,8-dione]: above 0.81 µM. Same read-out and setting: the same measure for `CCN1C(=O)c2c(O)c(=O)ccn2N2C(c3ccccc3C)C(CCC(F)F)CCC12` (single isomer, unassigned) [Compound 102B, 2-(3,3-difluoropropyl)-5-ethyl-7-hydroxy-1-(o-tolyl)-1,2,3,4,4a,5-hexahydrodipyrido[1,2-b:2′,1′-f][1,2,4]triazine-6,8-dione]: 0.0365 µM; for `CN1C(=O)c2c(O)c(=O)ccn2N2C(c3ccccc3C(F)(F)F)CCC12` (single isomer, unassigned) [Compound 15B, 6-hydroxy-4-methyl-1-(2-(trifluoromethyl)phenyl)-2,3,3a,4-tetrahydro-1H-pyrido[2,1-f]pyrrolo[1,2-b][1,2,4]triazine-5,7-dione]: 1.45 µM. Still for that read-out and setting: the same measure for `CN1C(=O)c2c(O)c(=O)ccn2N2C(c3ccccc3)C3CCC(C3)C12` (single isomer, unassigned) [Compound 9B, 4-hydroxy-6-methyl-11-phenyl-6a,7,8,9,10,11-hexahydro-3H-7,10-methanopyrido[1′,2′:1,6][1,2,4]triazino[2,3-a]azepine-3,5(6H)-dione]: 0.166 µM; for `CN1C(=O)c2c(O)c(=O)ccn2N2C1CCC1(CCCC(F)(F)C1)C2c1ccccc1` (single isomer, unassigned) [Compound 75D, 3,3-difluoro-7′-hydroxy-5′-methyl-1′-phenyl-3′,4′,4a′,5′-tetrahydro-1′H-spiro[cyclohexane-1,2′-dipyrido[1,2-b:2′,1′-f][1,2,4]triazine]-6′,8′-dione]: 0.0192 µM; for `CCC1(c2ccccc2)CCCC2N(C)C(=O)c3c(O)c(=O)ccn3N21` (single isomer, unassigned) [Compound 22B, 1-ethyl-7-hydroxy-5-methyl-1-phenyl-1,2,3,4,4a,5-hexahydrodipyrido[1,2-b:2′,1′-f][1,2,4]triazine-6,8-dione]: 5.29 µM. `CN1C(=O)c2c(O)c(=O)ccn2N2C1CCCC2(C)c1ncccc1F` (single isomer, unassigned) [Compound 27B, 1-(3-fluoropyridin-2-yl)-7-hydroxy-1,5-dimethyl-1,2,3,4,4a,5-hexahydrodipyrido[1,2-b:2′,1′-f][1,2,4]triazine-6,8-dione]: the EC50 was 0.0171 µM. The same measure, in the same setting: the value for `CCc1ccccc1C1C(CC(F)(F)F)CCC2N(C)C(=O)c3c(O)c(=O)ccn3N12` (single isomer, unassigned) [Compound 112B, 1-(2-ethylphenyl)-7-hydroxy-5-methyl-2-(2,2,2-trifluoroethyl)-1,2,3,4,4a,5-hexahydrodipyrido[1,2-b:2′,1′-f][1,2,4]triazine-6,8-dione] was 0.162 µM; that for `CN1C(=O)c2c(O)c(=O)ccn2N2C(c3ccc(F)cc3)C(CC(F)(F)F)CCC12` (single isomer, unassigned) [Compound 122A, 1-(4-fluorophenyl)-7-hydroxy-5-methyl-2-(2,2,2-trifluoroethyl)-1,2,3,4,4a,5-hexahydrodipyrido[1,2-b:2′,1′-f][1,2,4]triazine-6,8-dione] was 0.343 µM; that for `CCN1C(=O)c2c(O)c(=O)ccn2N2C(c3ccccc3)C(C3(C(F)(F)F)CC3)CCC12` (single isomer, unassigned) [Compound 104A, 5-ethyl-7-hydroxy-1-phenyl-2-(1-(trifluoromethyl)cyclopropyl)-1,2,3,4,4a,5-hexahydrodipyrido[1,2-b:2′,1′-f][1,2,4]triazine-6,8-dione] was 0.008 µM.

Still in this test, the particulars now being: MDCK, 48 h.
Take `COCCCO[C@@H]1CC[C@H]2N(C)C(=O)c3c(O)c(=O)ccn3N2[C@@H]1c1ccccc1` [Compound 163, (1R,2R,4aS)-7-hydroxy-2-(3-methoxypropoxy)-5-methyl-1-phenyl-1,2,3,4,4a,5-hexahydrodipyrido[1,2-b:2′,1′-f][1,2,4]triazine-6,8-dione]: a half-maximal effect (EC50) was put at 0.27 µM. The same measure, in the same setting: the value for `CN1C(=O)c2c(O)c(=O)ccn2N2[C@H](c3ccccc3)[C@@H](NC(=O)C(F)(F)F)CC[C@@H]12` [Compound 140] was 2.4 µM. Take `CN1C(=O)c2c(O)c(=O)ccn2C2C1CCCC2(O)c1ccccc1` (single isomer, unassigned) [Compound 165A, 1,7-dihydroxy-5-methyl-1-phenyl-1,3,4,4a,5,11a-hexahydro-2H-pyrido[1,2-a]quinoxaline-6,8-dione]: the EC50 is above 8.1 µM. In turn, `CN1C(=O)c2c(O)c(=O)ccn2N2[C@H](c3ccccc3)[C@H](OCC3(C#N)CCC3)CC[C@@H]12` [Compound 159, 1-((((1R,2R,4aS)-7-hydroxy-5-methyl-6,8-dioxo-1-phenyl-1,2,3,4,4a,5,6,8-octahydrodipyrido[1,2-b:2′,1′-f][1,2,4]triazin-2-yl)oxy)methyl)cyclobutane-1-carbonitrile] registered an EC50 of 0.21 µM.

These data come from patent US20240018145A1, “[…]-DEPENDENT EN[…] TREATING OR […]” (priority 2020, published 2024).
